According to patent publication US10738119B2, “Combination therapy for hepatocellular carcinoma” (Health Research, Inc., priority 2014, dated 2020):
Entries after “also recorded” stand apart in the source; their conditions may differ.

How the values were obtained:
Format in all cases: in vivo, human
[1] = test system: HCC patients; experiment: Overall survival of HCC patients stratified by greater or smaller decrease in immune parameters after sorafenib treatment
Protocol: FIGS. 15A-15D. […] Overall survival of patients was calculated based on the status of (FIG. 15A) absolute numbers of CD4^+PD-1^+ T cells (FIG. 15B) CD8^+PD-1^+ T cells (FIG. 15C) expression levels of PD-1 (MFI) on CD8^+ T cells (FIG. 15D) absolute numbers of CD4^+Foxp3^+ T cells.
FIGS. 18A-18R. […] Overall survival of patients was calculated based on the status of (FIG. 18A) frequency of CD4^+Foxp3^+ Tregs (FIG. 18B) frequency of GARP^+Foxp3^+ Tregs (FIG. 18C) expression levels of GARP (MFI) on Foxp3^+ Tregs (FIG. 18D) frequency of CTLA-4^+Foxp3^+ Tregs (FIG. 18E) absolute number of CD4^+Foxp3^+ Tregs (FIG. 18F) expression levels of CTLA-4 (MFI) on Foxp3^+ Tregs (FIG. 18G) frequency of CD11b^+CD33^+ MDSC (FIG. 18H) absolute number of CD11b^+CD33^+ MDSC (FIG. 18I) frequency of CD4^+PD-1^+ T cells (FIG. 18J) expression levels of PD-1 (MFI) on CD4^+ T cells (FIG. 18K) frequency of Foxp3^+PD-1^+ T cells (FIG. 18L) absolute number of Foxp3^+PD-1^+ T cells (FIG. 18M) expression levels of PD-1 (MFI) on Foxp3^+CD4^+ T cells (FIG. 18N) frequency of CD8^+PD-1^+ T cells (FIG. 18O) IL-10 (FIG. 18P) TGF-β1 (FIG. 18Q) IFN-γ (FIG. 18R) IL-1β.
(§1) Plasma levels of both pro-inflammatory and immunosuppressive cytokines were determined by ELISA.
(§2) This study was approved by institutional review board of Roswell Park Cancer Institute (RPCI), Buffalo, N.Y. and informed consent was obtained from all participants. Heparinized peripheral blood samples were obtained from HCC patients before the initiation of sorafenib treatment and after four weeks or more of oral sorafenib treatment, through Data Bank and Biorepository at RPCI.

[2] = test system: TGF-β1; experiment: Plasma cytokine ELISA pre and post sorafenib treatment: TGF-β1; conditions: pre vs post sorafenib
Protocol: (§3) Plasma isolated during PBMC separation was assayed to quantify the level of IFN-γ, IL-10, and TGF-β1 using specific ELISA kits according to the manufacturer's instructions (eBioscience).
as §1, §2
(§4) PBMCs were isolated immediately by Ficoll-Paque Plus density gradient centrifugation and cryopreserved. Plasma was isolated and stored at −80° C. and used for measurement of immunosuppressive and immunostimulatory cytokines as described previously. Frequency, phenotype and functionality of immune cells after blocking immune check points were analyzed by multi-parameter flow cytometry.

[3] = test system: HCC patients; experiment: Overall survival of HCC patients stratified by greater or smaller decrease in immune parameters after sorafenib treatment; conditions: log-rank P<0.30, FIG. 18E
[4] = test system: HCC patients; experiment: PD-1 status and survival of HCC patients treated with sorafenib (Example 2)
Source text: The individual data points in the figures represent each patient.

[5] = test system: Foxp3+ Tregs; experiment: Multi-parametric flow cytometry of Tregs in PBMC of HCC patients pre and post sorafenib treatment; conditions: pre vs post sorafenib
Protocol: (§5) FACS analysis was performed to measure peripheral blood Treg frequency using APC-H7 anti-CD3, V450 anti-CD4, PE anti-CD127, PE-Cy5 anti-CTLA-4 (BD Biosciences) and PE-Cy7 anti-PD-1, Alexa488 anti-Foxp3 (Biolegend). Detection of surface GARP levels was achieved by using mouse anti-human GARP (Enzo Life Sciences) followed by staining with PE F(ab′)2 goat anti-mouse IgG (Jackson ImmunoResearch Laboratories). Cells were incubated with normal mouse IgG for 10 min prior to surface and intracellular staining. Intracellular analysis for Foxp3 and CTLA-4 was performed after fixation and permeabilization of cells using intracellular staining kit (eBioscience) according to manufacturer's instructions. All samples were acquired on LSRII flow cytometer (BD Biosciences) and analyzed using Flowjo Model Fit (Tree Star).
as §1, §2, §4

[6] = test system: IL-1β; experiment: Plasma cytokine ELISA pre and post sorafenib treatment: IL-1β; conditions: pre vs post sorafenib, P<0.11, FIG. 17A
Protocol: as §3, §1, §2, §4

[7] = test system: CD11b+CD33+ MDSC; experiment: Multi-parametric flow cytometry of MDSC in PBMC of HCC patients pre and post sorafenib treatment; conditions: pre vs post sorafenib
Protocol: MDSC in the peripheral blood were detected using FITC anti-CD11b (eBioscience), PE-Cy5 anti-CD33, APC anti-CD14, V450 anti-HLA-DR (BD Biosciences).
as §1, §2, §4

[8] = test system: IFN-γ; experiment: Plasma cytokine ELISA pre and post sorafenib treatment: IFN-γ; conditions: pre vs post sorafenib
Protocol: as §3, §1, §2, §4

[9] = test system: IL-10; experiment: Plasma cytokine ELISA pre and post sorafenib treatment: IL-10; conditions: pre vs post sorafenib
Protocol: as §3, §1, §2, §4

[10] = test system: PD-1+ T cells; experiment: Multi-parametric flow cytometry of PD-1+ T cells in PBMC of HCC patients pre and post sorafenib treatment; conditions: pre vs post sorafenib
Protocol: as §5, §1
This study was approved by institutional review board of Roswell Park Cancer Institute (RPCI), Buffalo, N.Y. and informed consent was obtained from all participants.
as §4

CNC(=O)c1cc(Oc2ccc(NC(=O)Nc3ccc(Cl)c(C(F)(F)F)c3)cc2)ccn1 [sorafenib]
overall survival, greater decrease in PD-1 expression levels on CD4+ T cells after sorafenib ([1]; AFT models, AFT β P<0.04): better overall survival benefit
overall survival, greater decrease in absolute number of MDSC after sorafenib ([1]; AFT models, AFT β P<0.05): better prognosis; also recorded: significant correlation with overall survival
overall survival, greater decrease in percentage of MDSC after sorafenib ([1]; AFT models, AFT β P<0.05): better prognosis; also recorded: significant correlation with overall survival
overall survival vs absolute numbers of Foxp3+ Tregs post-sorafenib treatment ([1]; log-rank P<0.01, FIG. 15D): statistically significant improvement in overall survival; also recorded: significant correlation with overall survival
overall survival, greater vs smaller decrease in absolute number of PD-1+CD4+ T cells after sorafenib ([1]; log-rank P<0.04, FIG. 15A): significant interaction term; also recorded: significantly improved overall survival rate
overall survival, greater vs smaller decrease in absolute number of CD8+PD-1+ T cells after sorafenib ([1]; log-rank P<0.04, FIG. 15B): significant interaction term; also recorded: significant improvement in overall survival
overall survival, greater vs smaller decrease in PD-1 expression levels on CD8+ T cells after sorafenib ([1]; log-rank P<0.04, FIG. 15C): significant improvement in overall survival
overall survival, greater vs smaller decrease in frequency of CTLA-4+ Tregs after sorafenib ([1]; log-rank P<0.51, FIG. 18D): no significant differences in the overall survival
overall survival vs changes in levels of TGF-β1 after sorafenib ([1]; log-rank P<0.61, FIG. 18P): none of these cytokines showed any significant association; also recorded: non-significant interaction term
overall survival vs changes in levels of IFN-γ after sorafenib ([1]; log-rank P<0.62, FIG. 18Q): none of these cytokines showed any significant association; also recorded: non-significant interaction term
overall survival vs changes in levels of IL-10 after sorafenib ([1]; log-rank P<0.73, FIG. 18O): none of these cytokines showed any significant association; also recorded: non-significant interaction term
overall survival vs changes in levels of IL-1β after sorafenib ([1]; log-rank P<0.92, FIG. 18R): non-significant interaction term
95% CI of change in levels of TGF-β1 after sorafenib treatment ([2]; FIG. 17C): −151.50 to −48.55
plasma levels of TGF-β1 after sorafenib treatment ([2]; P<0.03, FIG. 17C): significant decrease
overall survival, greater vs smaller decrease in absolute number of CTLA-4+ Tregs after sorafenib [3]: no significant differences in the overall survival
mean survival time ([4]; group where PD-1 was decreased): 688 days
mean survival ([4]; group which did not show a decrease in PD-1): 168 days
95% CI of change in frequency of CD3+CD4+Foxp3+ Tregs after sorafenib treatment ([5]; FIG. 16A): −0.44 to −1.16
95% CI of change in absolute numbers of CD3+CD4+Foxp3+ Tregs after sorafenib treatment ([5]; FIG. 16B): −9.48 to −3.55
95% CI of change in frequency of Foxp3+CTLA-4+ Tregs after sorafenib treatment ([5]; FIG. 16C): −3.18 to −0.82
95% CI of change in absolute number of Foxp3+CTLA-4+ Tregs after sorafenib treatment ([5]; FIG. 16D): −8.42 to −6.32
frequency of CD3+CD4+Foxp3+ Tregs after sorafenib treatment ([5]; P<0.02, FIG. 16A): significant decrease
frequency of Foxp3+CTLA-4+ Tregs after sorafenib treatment ([5]; P<0.02, FIG. 16C): Marked reduction
absolute numbers of CD3+CD4+Foxp3+ Tregs after sorafenib treatment ([5]; P<0.05, FIG. 16B): significant decrease
absolute number of Foxp3+CTLA-4+ Tregs after sorafenib treatment ([5]; P<0.05, FIG. 16D): Marked reduction
plasma levels of IL-1β after sorafenib treatment [6]: did not show any significant decrease
frequency of CD11b+CD33+ MDSC after sorafenib treatment ([7]; P<0.61, FIG. 16E): did not significantly impact; also recorded: did not have any significant influence
absolute number of CD11b+CD33+ MDSC after sorafenib treatment ([7]; P<0.92, FIG. 16F): did not significantly impact; also recorded: did not have any significant influence
95% CI of change in levels of IFN-γ after sorafenib treatment ([8]; FIG. 17D): −1.07 to 23.64
plasma levels of IFN-γ after sorafenib treatment ([8]; P<0.04, FIG. 17D): concomitant increase; also recorded: significantly increased
95% CI of change in levels of IL-10 after sorafenib treatment ([9]; FIG. 17B): −63.30 to −4.9
plasma levels of IL-10 after sorafenib treatment ([9]; P<0.03, FIG. 17B): significant decrease
95% CI of change in expression levels (MFI) of PD-1 on CD4+ T cells after sorafenib treatment ([10]; FIG. 14B): −56.51 to −12.09 MFI
expression levels (MFI) of PD-1 on CD4+ T cells after sorafenib treatment ([10]; P<0.02, FIG. 14B): significantly decreased
absolute number of CD4+Foxp3+PD-1+ T cells after sorafenib treatment ([10]; P<0.04, FIG. 14C): significantly decreased
absolute number of CD8+PD-1+ T cells after sorafenib treatment ([10]; P<0.15, FIG. 14E): did not show any significant decrease
frequency of CD8+PD-1+ T cells after sorafenib treatment ([10]; P<0.20, FIG. 14D): did not show any significant decrease
level of expression of PD-1 on CD8+ T cells (MFI) after sorafenib treatment ([10]; P<0.31, FIG. 14F): did not show any significant decrease
frequency of CD4+PD-1+ T cell after sorafenib treatment ([10]; n=19, P<0.01, FIG. 14A): significantly reduced
